The record followed here is patent publication US6911446B2, “Methods of modulating serine/threonine protein kinase function with quinazoline-based compounds” (Sugen, Inc., priority 1997, dated 2005).

T1 sequence (P04049 whole entry): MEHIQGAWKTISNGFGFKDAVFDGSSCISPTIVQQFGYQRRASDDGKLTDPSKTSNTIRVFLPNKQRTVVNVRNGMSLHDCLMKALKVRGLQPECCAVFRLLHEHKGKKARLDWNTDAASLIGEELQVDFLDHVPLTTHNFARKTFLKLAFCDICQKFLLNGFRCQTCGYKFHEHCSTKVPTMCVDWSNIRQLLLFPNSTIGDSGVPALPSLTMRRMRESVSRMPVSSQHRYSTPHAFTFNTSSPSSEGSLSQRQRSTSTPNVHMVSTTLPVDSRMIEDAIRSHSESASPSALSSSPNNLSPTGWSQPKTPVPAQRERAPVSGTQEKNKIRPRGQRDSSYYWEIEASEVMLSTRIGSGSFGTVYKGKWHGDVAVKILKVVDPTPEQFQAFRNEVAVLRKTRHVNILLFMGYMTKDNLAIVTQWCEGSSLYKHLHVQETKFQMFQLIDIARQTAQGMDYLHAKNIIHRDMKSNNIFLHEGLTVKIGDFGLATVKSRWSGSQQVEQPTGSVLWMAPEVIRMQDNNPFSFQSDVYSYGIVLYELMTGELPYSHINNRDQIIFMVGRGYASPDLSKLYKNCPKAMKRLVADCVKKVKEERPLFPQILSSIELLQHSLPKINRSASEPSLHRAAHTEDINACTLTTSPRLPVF

One experiment relates to NIH-3T3 cells expressing RAF-1. Briefly: Growth of NIH-3T3 cells expressing RAF-1. The settings on record: Mus musculus, NIH3T3; growth of NIH-3T3 cells overexpressing RAF. Format: cell-based. An excerpt:
The following assay measures growth rates for NIH-3T3 cells expressing RAF-1. The protocol for the assay is described in detail in PCT Publication WO9640116, filed Jun. 5, 1996, by Tang et al., and entitled “Indolinone Compounds for the Treatment of Disease,” incorporated herein by reference in its entirety, including any drawings.
As usually defined, the IC50 is the point on the concentration scale where inhibition reaches its midpoint. Low values mean inhibition by little substance, high ones a need for much substance. `Nc1nc(N)c2c(Oc3ccc(F)cc3)cccc2n1` [Compound A-7, 2,4-Diamino-5-(4-fluorophenoxy)quinazoline] displayed a concentration for half-maximal inhibition (IC50) of 1.7 µM. Same read-out and setting: under `Nc1nc(N)c2c(Oc3ccccc3)cccc2n1` [Compound A-1, 2,4-Diamino-5-phenoxyquinazoline] stands 0.16 µM; under `Cc1ccc(Oc2cccc3nc(N)nc(N)c23)cc1` [Compound A-9, 2,4-Diamino-5-(4-methylphenoxy)quinazoline], 5.9 µM.

A further experiment addresses T1, RAF-1 (Homo sapiens, UniProt P04049).
T1 construct: made in house; host or cells: Sf9 (Spodoptera frugiperda) cells co-infected with RAS and RAF recombinant baculoviruses
Briefly: RAF-1 ELISA phosphorylation assay (RAF-catalyzed phosphorylation of MEK and MAPK). Format: biochemical. The settings on record: RAF-1 phosphorylation assay, lysates from RAS/RAF infected Sf9 cells, substrates T-MEK and His-MAPK. The source says:
The following assay reports the amount of RAF-catalyzed phosphorylation of its target protein MEK as well as MEK's target MAPK. The RAF gene sequence is described in Bonner et al., 1985, Molec. Cell. Biol. 5: 1400-1407, and is readily accessible in multiple gene sequence data banks. Construction of the nucleic acid vector and cell lines utilized for this portion of the invention are fully described in Morrison et al., 1988, Proc. Natl. Acad. Sci. USA 85: 8855-8859.
• 1. Sf9 (Spodoptera frugiperda) cells; GIBCO-BRL, Gaithersburg, Md. • 2. RIPA buffer: 20 mM Tris/HCl pH 7.4, 137 mM NaCl, 10% glycerol, 1 mM PMSF, 5 mg/L Aprotenin, 0.5% Triton X-100; • 3. Thioredoxin-MEK fusion protein (T-MEK): T-MEK expression and purification by affinity chromatography were performed according to the manufacturer's procedures. Catalog#K 350-01 and R 350-40, Invitrogen Corp., San Diego, Calif. • 4. His-MAPK (ERK 2); His-tagged MAPK was expressed in XL1 Blue cells transformed with pUC18 vector encoding His-MAPK. His-MAPK was purified by Ni-affinity chromatography. Cat#27-4949-01, Pharmacia, Alameda, Calif., as described herein. • 5. Sheep anti mouse IgG: Jackson laboratories, West Grove, Pa. Catalog, #515-006-008, Lot#28563 • 6. RAF-1 protein kinase specific antibody: URP2653 from UBI. • 7. Coating buffer: PBS; phosphate buffered saline, GIBCO-BRL, Gaithersburg, Md. • 8. Wash buffer: TBST-50 mM Tris/HCL pH 7.2, 150 mM NaCl, 0.1% Triton X-100 • 9. Block buffer: TBST, 0.1% ethanolamine pH 7.4 • 10. DMSO, Sigma, St. Louis, Mo. • 11. Kinase buffer (KB): 20 mM Hepes/HC1 pH 7.2, 150 mM NaCl, 0.1% Triton X-100, 1 mM PMSF, 5 mg/L Aprotenin, 75 μM sodium ortho vanadate, 0.5 MM DTT and 10 mM MgCl2. • 12. ATP mix: 100 mM MgCl2, 300 μM ATP, 10 μCi γ-^33P ATP (Dupont-NEN)/mL. • 13 Stop solution: 1% phosphoric acid; Fisher, Pittsburgh, Pa. • 14. Wallac Cellulose Phosphate Filter mats; Wallac, Turku, Finnland. • 15. Filter wash solution: 1% phosphoric acid, Fisher, Pittsburgh, Pa. • 16. Tomtec plate harvester, Wallac, Turku, Finnland. • 17. Wallac beta plate reader #1205, Wallac, Turku, Finnland. • 18. NUNC 96-well V bottom polypropylene plates for compounds Applied Scientific Catalog #AS-72092. Procedure
All of the following steps were conducted at room temperature unless specifically indicated. • 1. ELISA plate coating: ELISA wells are coated with 100 μL of Sheep anti mouse affinity purified antiserum (1 μg/100 μL coating buffer) over night at 4° C. ELISA plates can be used for two weeks when stored at 4° C. • 2. Invert the plate and remove liquid. Add 100 μL of blocking solution and incubate for 30 min. • 3. Remove blocking solution and wash four times with wash buffer. Pat the plate on a paper towel to remove excess liquid. • 4. Add 1 μg of antibody specific for RAF-1 to each well and incubate for 1 hour. Wash as described in step 3. • 5. Thaw lysates from RAS/RAF infected Sf9 cells and dilute with TBST to 10 μg/100 μL. Add 10 μg of diluted lysate to the wells and incubate for 1 hour. Shake the plate during incubation. Negative controls receive no lysate. Lysates from RAS/RAF infected Sf9 insect cells are prepared after cells are infected with recombinant baculoviruses at a MOI of 5 for each virus, and harvested 48 hours later. The cells are washed once with PBS and lysed in RIPA buffer. Insoluble material is removed by centrifugation (5 min at 10,000×g). Aliquots of lysates are frozen in dry ice/ethanol and stored at −80° C. until use. • 6. Remove non-bound material and wash as outlined above (step 3). • 7. Add 2 μg of T-MEK and 2 μg of His-MAEPK per well and adjust the volume to 40 μL with kinase buffer. Methods for purifying T-MEK and MAPK from cell extracts are provided herein by example. • 8. Predilute compounds (stock solution 10 mg/mL DMSO) or extracts 20 fold in TBST plus 1% DMSO. Add 5 μL of the prediluted compounds/extracts to the wells described in step 6. Incubate for 20 min. Controls receive no drug. • 9. […]
As for `COc1ccc(Oc2cccc3nc(N)nc(N)c23)cc1` [Compound A-6, 2,4-Diamino-5-(4-methoxyphenoxy)quinazoline], 0.8 µM corresponded to half-maximal inhibition (IC50).

`Nc1nc(N)c2c(Oc3ccc(F)cc3)cccc2n1` [Compound A-7, 2,4-Diamino-5-(4-fluorophenoxy)quinazoline] displayed an IC50 of 5.8 µM. The same measure, in the same setting: the result for `Nc1nc(N)c2c(Oc3ccccc3)cccc2n1` [Compound A-1, 2,4-Diamino-5-phenoxyquinazoline] reads 0.3 µM; that for `Cc1ccc(Oc2cccc3nc(N)nc(N)c23)cc1` [Compound A-9, 2,4-Diamino-5-(4-methylphenoxy)quinazoline], 4.5 µM. Still for that read-out and setting: under `CC(C)(C)c1ccc(Oc2cccc3nc(N)nc(N)c23)cc1` [Compound A-8, 2,4-Diamino-5-(4-tert-butylphenoxy)quinazoline] stands over 100 µM. Still for that read-out and setting: under `COc1cccc(Oc2cccc3nc(N)nc(N)c23)c1` [Compound A-23, 2,4-Diamino-5-(3-methoxyphenoxy)quinazoline] stands 6.4 µM; under `Nc1ncnc2cccc(Oc3ccc(OCc4ccccc4)cc3)c12` [Compound A-28, 4-Amino-5-(4-benzyloxyphenoxy)quinazoline], 0.3 µM; under `COc1ccccc1Oc1cccc2nc(N)nc(N)c12` [Compound A-22, 2,4-Diamino-5-(2-methoxyphenoxy)quinazoline], 20 µM.
